Assay results taken from patent US12172941B2, “Organic compound and organic light-emitting device” (CANON KABUSHIKI KAISHA, priority 2020, dated 2024).

Assays:
Format in all cases: physicochemical
[1] = Difference between decomposition temperature (TG/DTA) and sublimation temperature; details: decomposition: 5% weight loss in TG/DTA; sublimation: vacuum 1×10^−1 Pa, Ar flow
Excerpt: The decomposition temperature is a temperature at which the weight loss reaches 5% in TG/DTA measurement. […] In the toluene solubility test performed in a nitrogen atmosphere under reflux by heating while stirring, dissolution was visually inspected and was expressed as a relative value with respect to the amount of toluene (1.0) used to completely dissolve the exemplary compound A1.

[2] = Photoluminescence emission spectrum of toluene solution (F-4500); details: toluene solution 1×10^−5 mol/l, room temperature, excitation 350 nm
Protocol: The measurement was performed by measuring photoluminescence with F-4500 manufactured by Hitachi, Ltd. at room temperature and at an excitation wavelength of 350 nm.

[3] = Absolute PL quantum yield in solution (C9920-02); details: room temperature, relative value

SMILES	Decomposition temperature-sublimation temperature [1] [°C]	Emission wavelength max [2]	λmax [2]	Quantum yield ([3]; exemplary compound A17 = 1.00)	Quantum yield ([3]; exemplary compound D2 = 1.00)
c1ccc(-c2c3c(c(-c4ccccc4)c4c2ccc2c5cc6c(cc5ccc24)-c2cccc4cccc-6c24)-c2cc4ccccc4c4cccc-3c24)cc1 [Exemplary compound A1]	90				
c1ccc(-c2cc3c4cc5c(cc4c(-c4ccccc4)cc3c3cc4c(cc23)-c2cccc3cccc-4c23)-c2cccc3cccc-5c23)cc1 [Comparative compound (1)]		449	449	0.95	0.95
c1ccc(-c2cc3c4cc5c(cc4c(-c4ccccc4)cc3c3cc4c(cc23)-c2cccc3cccc-4c23)-c2cccc3c2c-5cc2ccccc23)cc1 [Exemplary compound A17]		449		1.00	
Cc1ccc(-c2cc3c4cc5c(cc4c(-c4ccc(C)cc4)cc3c3cc4c(cc23)-c2cc3ccccc3c3cccc-4c23)-c2cc3ccccc3c3cccc-5c23)cc1 [Exemplary compound D2]			453		1.00
c1ccc(-c2c3c(c(-c4ccccc4)c4c2ccc2c5cc6c(cc5ccc24)-c2cccc4cccc-6c24)-c2cccc4cccc-3c24)cc1 [Comparative compound (2)]	70				
